2 sequences from patent US20080096251A1, “Invertebrate-Derived Gonadotropic Hormone and its Synthesis” (priority 2004, published 2008) can be followed below.

Assay [1] concerns ovary of Asterias amurensis. As to the kind of experiment: gonad-stimulating activity: spawning of matured eggs from ovary fragments in a two-fold dilution series. Type of assay: cell-based. As to conditions: Asterias amurensis ovary piece in seawater, 25° C., spawning after 1 hr. As for the experimental part:
(§1) Gonad-stimulating activity could be measured by the following methods:
(§2) Those individuals, whose eggs are highly sensitive to oocyte maturation-inducing hormone, are selected from matured invertebrate female individuals and are separated as test individuals.
(§3) Ovaries are excised from test individuals into seawater and are cut in small pieces. The assay plate for multiple test samples is filled with 200 μl seawater. Two μl of a test sample for gonad-stimulating activity is diluted to 200 folds by mixing with 398 μl seawater. The half portion (200 μl) is diluted to two fold by mixing with 200 μl seawater in the assay plate. The half portion (200 μl) is further diluted to two fold by mixing with 200 μl seawater in the assay plate. Repeating of the procedure results in preparation of two fold dilution series from 200-folds dilution to 102,400-folds dilution. A small piece of ovary is added to each dilution sample and is allowed to rest at 25° C. The gonad-stimulating activity is evaluated by spawning of matured eggs from a contracted small piece of ovary after 1 hr. The relative gonad-stimulating activity is assessed by the degree of dilution.
(§4) In the following Examples, gonad-stimulating activity are examined by the following way:
(§5) Two to three individuals bearing oocyte with high sensitivity of a gonadotropic hormone (1-methyladenine) are selected from several tens of female individuals of matured Asterina pectinifera (or Asterias amurensis) and are separated as test individuals.
(§6) The selection was performed in the following way:
(§7) The oocyte maturation-inducing hormone was diluted to 6 different concentrations, i.e. 10^−6 M, 3×10^−7 M, 10^−7 M, 3×10^−8 M, 10^−8 M, and 3×10^−9 M, in seawater, wherein small fragment of ovary was added to the different concentrations of maturation-inducing hormone and was allowed to stand for 60 min at room temperature. Maturation of oocyte was examined under microscope after 60 min to see whether the structure of nuclei in an oocyte was degraded to prepare for next fertilization. The concentration of the oocyte maturation-inducing hormone at maturation was checked and those individuals, which were matured at less than 10^−7 M, were used as test individuals.
as §3, with “(with tufted morphology) were removed” for “are excised”, “were” for “are”, “into about 5 mm fragments.” for “in small pieces.”, “hr (FIG. 1).” for “hr.”

For assay [2], the system named is ovary of Asterina pectinifera. The assay is described as above. Type of assay: cell-based. To be noted: for EC50(nM) gonad-stimulating activity, Asterina pectinifera: Asterina pectinifera ovary piece in seawater, 25° C., spawning after 1 hr; for gonad-stimulating activity (in words): summary of Table 1, Asterina pectinifera. As for the experimental part: as §1, §2, §3, §4, §5, §6, §7
as §3, with “(with tufted morphology) were removed” for “are excised”, “were” for “are”, “into about 5 mm fragments.” for “in small pieces.”, “hr (FIG. 1).” for “hr.”

“EKYCDDDFHMAVFRTCAVS [GSS-A, synthesized subunit peptide, 19 amino acid residues, molecular weight 2236]”: the “EC50(nM) gonad-stimulating activity, Asterias amurensis” value in assay [1] is recorded as “No activity”. For the same sequence, in assay [2], the “EC50(nM) gonad-stimulating activity, Asterina pectinifera” value was “No activity” and the “gonad-stimulating activity (in words)” value is “did not show gonad-stimulating activity”.

As to SEYSGIASYCCLHGCTPSELSVVC [GSS-B], the “EC50(nM) gonad-stimulating activity, Asterias amurensis” value in assay [1] is listed as “No activity”. Also, in assay [2], the “EC50(nM) gonad-stimulating activity, Asterina pectinifera” value was “No activity” and the “gonad-stimulating activity (in words)” value is “did not show gonad-stimulating activity”.
